Values of other authors as cited in patent publication US12036203B2, “Methods of treating or reducing the risk of cardiovascular events and related diseases using SGLT-2 inhibitors” (Merck Sharp & Dohme LLC, priority 2016, dated 2024).

Conditions: type 2 diabetes at high cardiovascular risk

## OC[C@H]1O[C@@H](c2ccc(Cl)c(Cc3ccc(O[C@H]4CCOC4)cc3)c2)[C@H](O)[C@@H](O)[C@@H]1O [empagliflozin]
In addition to standard of care, placebo group 4.1%
  rate of hospitalization for heart failure: 2.7%
In addition to standard of care, placebo group 5.9%
  rate of death from cardiovascular causes: 3.7%
In addition to standard of care, placebo group 8.3%
  rate of death from any cause: 5.7%
vs. placebo
  rates of myocardial infarction or stroke: no significant between-group differences
  relative risk reduction, death from any cause: 32%
  relative risk reduction, death from cardiovascular causes: 38%
  relative risk reduction, hospitalization for heart failure: 35%
